In US7947689B2, “Substituted pyrazolo[1,5-a]pyrimidines as metabotropic glutamate receptor modulators” (Merz Pharma GmbH & Co. KGaA, priority 2006, dated 2011):

Assays:
mGluR5 receptors = biological target: T1, mGluR5 receptors (Rattus norvegicus, UniProt P31424); experiment: Cytosolic calcium studies with astrocytes (astrocyte culture test, FLIPR); assay type: cell-based; settings: rat primary astrocytes; L-quisqualate 100 nM; read-out: mGluR5_FLIPR_r_rpA— IC50
T1 construct: endogenous in cells; host or cells: primary astrocytes from neocortex of Sprague-Dawley rat pups (2-4 d old)
Description: Primary astrocyte cultures are prepared from cortices of newborn rats as described by Booher and Sensenbrenner (1972, Neurobiology 2(3):97-105). Briefly, Sprague-Dawley rat pups (2-4 d old) are decapitated and neocortices are dissected, disintegrated with a nylon filter (pore size 80 μm) and carefully triturated. The cell suspension is plated on poly-D-lysine pre-coated flasks (Costar, Netherlands) and cultivated in Dulbecco's Modified Eagle's Medium (DMEM, Invitrogen, Germany) supplemented with 10% foetal calf serum (FCS, Sigma, Germany), 4 mM glutamine and 50 μg/ml gentamycin (both Biochrom, Germany) at 37° C. in a humidified atmosphere of 5% CO2/95% air for 7 d with exchanging the medium at day 2 and 6.
After 7 days in vitro (DIV), cells are shaken overnight at 250 rpm to remove oligodendrocytes and microglia. The next day, astrocytes are rinsed twice with CMF-PBS (calcium- and magnesium-free phosphate buffered saline, Biochrom, Germany), trypsinized and subplated on poly-D-lysine pre-coated 96-well plates (Greiner, Germany) at a density of 40,000 cells/well. 24 h after establishing the secondary culture the astrocytes are rinsed with PBS^++ (phosphate buffered saline, Biochrom, Germany) and fed with astrocyte-defined medium (ADM) consisting of DMEM containing 1×G5-supplement (Invitrogen, Germany), 0.5 μg/ml heparan sulfate, and 1.5 μg/ml fibronectin (both Sigma, Germany) (Miller et al., (1993) Brain Res. 618(1):175-8). 3 d later the medium is exchanged and the cells incubated for another 2-3 d, so that at the time of experiments astrocytes are 14-15 DIV.
Cytosolic Calcium Studies with Astrocytes:
The increase of cytosolic calcium after stimulation with the mGluR5 agonist L-quisqualate is measured using a fluorometric imaging plate reader (FLIPR) and the Ca-Kit (both Molecular Devices). Prior to addition of agonist or antagonist the medium is aspirated and cells are loaded for 2 h at RT with 150 μl of loading buffer consisting of Ca-sensitive dye reconstituted in sodium chloride (123 mM), potassium chloride (5.4 mM), magnesium chloride (0.8 mM), calcium chloride (1.8 mM), D-glucose (15 mM), and HEPES (20 mM), pH 7.3. Subsequently, plates are transferred to FLIPR to detect calcium increase with the addition of L-quisqualate (100 nM) measured as relative fluorescence units (RFU). If antagonists are tested, these compounds are pre-incubated for 10 minutes at RT before addition of the respective agonist.
(§1) The fluorescence signal increase after addition of agonist reflects the increase of cytosolic calcium. Inconsistencies in the amount of cells per well are normalised by using the spatial uniformity correction of the FLIPR software. The mean of replicated temporal data (n=3-5) is calculated and used for graphical representation. For the evaluation of the pharmacology, the calcium changes in response to different concentrations of agonist or antagonist are determined using a maximum minus minimum (MaxMin) calculation.
(§2) All responses (RFU-values) are determined as percentage of control (=maximum response). EC50 and IC50 are calculated according the logistic equation using GraFit 5.0 (Erithacus Software, GB) or Prism 4.0 (GraphPad Software, USA).

[1] = biological target: T2, transmembrane allosteric modulatory sites of mGluR5 receptors (Rattus norvegicus, UniProt P31424); experiment: [3H]-MPEP binding assay in rat cortical membranes; settings: displacement of radioligand, read-out: mGluR5_M_MPEP_r_CTX IC50
T2 construct: from tissue; host or cells: cortex of male Sprague-Dawley rats, membrane preparation
Description: Binding Assays for the Characterization of mGluR5 Antagonists
Preparation of Rat Cortical Membranes:
Male Sprague-Dawley rats (200-250 g) are decapitated and their brains are removed rapidly. The cortex is dissected and homogenized in 20 volumes of ice-cold 0.32 M sucrose using a glass-Teflon homogenizer. The homogenate is centrifuged at 1000×g for 10 minutes. The pellet is discarded and the supernatant centrifuged at 20,000×g for 20 minutes. The resulting pellet is re-suspended in 20 volumes of distilled water and centrifuged for 20 minutes at 8000×g. Then the supernatant and the buffy coat are centrifuged at 48,000×g for 20 minutes in the presence of 50 mM Tris-HCl, pH 8.0. The pellet is then re-suspended and centrifuged two to three more times at 48,000×g for 20 minutes in the presence of 50 mM Tris-HCl, pH 8.0. All centrifugation steps are carried out at 4° C. After resuspension in 5 volumes of 50 mM Tris-HCl, pH 8.0 the membrane suspension is frozen rapidly at −80° C.
On the day of assay the membranes are thawed and washed four times by resuspension in 50 mM Tris-HCl, pH 8.0 and centrifugation at 48,000×g for 20 minutes and finally re-suspended in 50 mM Tris-HCl, pH 7.4. The amount of protein in the final membrane preparation (500-700 μg/ml) is determined according to the method of Lowry (Lowry O. H. et al. 1951. J. Biol. Chem. 193, 256-275).
The incubations are continued at room temperature for 60 minutes (equilibrium is achieved under the conditions used). […] Incubations are terminated using a Millipore filter system. The samples are rinsed twice with 4 ml of ice-cold assay buffer over glass fibre filters (Schleicher & Schuell, Germany) under a constant vacuum. Following separation and rinse, the filters are placed into scintillation liquid (5 ml Ultima Gold, Perkin Elmer, Germany) and radioactivity retained on the filters is determined with a conventional liquid scintillation counter (Can berra Packard, Germany).

[2] = biological target: T3, metabotropic glutamate receptor (mGluR5) (Homo sapiens, UniProt P41594); experiment: Cytosolic calcium studies with stably transfected cells (FLIPR, CHO-K1); assay type: cell-based; design: expressed in transfected cells; host or cells: CHO-K1 cells (IPTG-inducible expression); settings: CHO-K1 cells expressing human mGluR5; agonist L-quisqualic acid at 80% of maximal signal; negative modulation; read-out: mGluR5_FLIPR_h_CHO_NAM— IC50
Description: Cytosolic Calcium Studies with Stably Transfected Cells:
Chinese hamster ovary cells (CHO-K1 cells), stably transfected for inducible expression of a human metabotropic glutamate receptor mGluR5, are seeded into black clear bottom 96 well plates at a density of 35.000 cells per well. The standard growth medium used (Dulbecco's modified Eagle Medium, DMEM plus L-proline) contains the appropriate inducer isopropyl-β-D-thiogalactopyranosid (IPTG) to achieve optimal receptor expression. One day after seeding the growth medium is exchanged for reconstituted Ca-Kit (Molecular Devices, USA) and incubated for one hour. Ca-Kit is reconstituted in an assay buffer containing 20 mM HEPES pH 7.4, glutamic-pyruvate transaminase, pyridoxal phosphate and sodium pyruvate in Hank's balanced salt solution (HBBS). Agonistic compounds to the receptor elicit increases in cytosolic calcium which can be measured as increases in fluorescence signals by use of a fluorescence imaging plate reader (Molecular Devices).
as §1, §2

[3] = biological target: T3, metabotropic glutamate receptor (mGluR5); experiment: Activity as mGluR5 modulator (test not specified); settings: for activity as metabotropic glutamate receptor (mGluR5) modulator: prior-art compounds

T2 sequence (P31424 21-1203): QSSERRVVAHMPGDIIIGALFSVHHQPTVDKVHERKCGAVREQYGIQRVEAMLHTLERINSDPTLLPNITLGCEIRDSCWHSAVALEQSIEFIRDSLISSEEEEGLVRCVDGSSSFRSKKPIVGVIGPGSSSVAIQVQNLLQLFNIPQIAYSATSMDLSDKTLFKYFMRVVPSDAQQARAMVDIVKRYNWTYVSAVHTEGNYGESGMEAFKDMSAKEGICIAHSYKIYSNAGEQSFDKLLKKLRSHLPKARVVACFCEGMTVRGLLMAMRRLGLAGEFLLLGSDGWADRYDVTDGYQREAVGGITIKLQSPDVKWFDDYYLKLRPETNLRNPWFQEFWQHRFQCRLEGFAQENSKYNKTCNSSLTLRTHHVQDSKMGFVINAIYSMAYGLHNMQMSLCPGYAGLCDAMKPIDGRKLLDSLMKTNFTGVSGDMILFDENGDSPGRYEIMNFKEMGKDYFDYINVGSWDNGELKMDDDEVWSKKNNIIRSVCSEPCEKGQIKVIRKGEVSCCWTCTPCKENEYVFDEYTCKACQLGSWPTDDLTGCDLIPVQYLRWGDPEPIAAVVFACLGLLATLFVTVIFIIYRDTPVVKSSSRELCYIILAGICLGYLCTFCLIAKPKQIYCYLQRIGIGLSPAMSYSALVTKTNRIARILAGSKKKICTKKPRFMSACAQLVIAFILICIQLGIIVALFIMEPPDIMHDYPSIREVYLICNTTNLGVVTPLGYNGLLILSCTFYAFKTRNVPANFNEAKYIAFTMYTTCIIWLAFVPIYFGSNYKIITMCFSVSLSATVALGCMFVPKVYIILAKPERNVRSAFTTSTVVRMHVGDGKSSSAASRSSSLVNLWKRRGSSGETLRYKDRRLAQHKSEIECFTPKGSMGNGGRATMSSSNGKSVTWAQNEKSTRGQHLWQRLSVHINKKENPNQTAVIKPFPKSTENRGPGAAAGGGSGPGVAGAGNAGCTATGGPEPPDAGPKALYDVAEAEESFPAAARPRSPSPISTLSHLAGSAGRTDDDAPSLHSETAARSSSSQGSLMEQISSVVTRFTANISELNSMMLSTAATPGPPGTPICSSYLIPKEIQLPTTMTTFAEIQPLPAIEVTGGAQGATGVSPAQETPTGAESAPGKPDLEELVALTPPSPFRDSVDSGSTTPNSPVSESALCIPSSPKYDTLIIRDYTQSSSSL
T1 sequence (P31424 21-1203): as above
T3 sequence (P41594 21-1212): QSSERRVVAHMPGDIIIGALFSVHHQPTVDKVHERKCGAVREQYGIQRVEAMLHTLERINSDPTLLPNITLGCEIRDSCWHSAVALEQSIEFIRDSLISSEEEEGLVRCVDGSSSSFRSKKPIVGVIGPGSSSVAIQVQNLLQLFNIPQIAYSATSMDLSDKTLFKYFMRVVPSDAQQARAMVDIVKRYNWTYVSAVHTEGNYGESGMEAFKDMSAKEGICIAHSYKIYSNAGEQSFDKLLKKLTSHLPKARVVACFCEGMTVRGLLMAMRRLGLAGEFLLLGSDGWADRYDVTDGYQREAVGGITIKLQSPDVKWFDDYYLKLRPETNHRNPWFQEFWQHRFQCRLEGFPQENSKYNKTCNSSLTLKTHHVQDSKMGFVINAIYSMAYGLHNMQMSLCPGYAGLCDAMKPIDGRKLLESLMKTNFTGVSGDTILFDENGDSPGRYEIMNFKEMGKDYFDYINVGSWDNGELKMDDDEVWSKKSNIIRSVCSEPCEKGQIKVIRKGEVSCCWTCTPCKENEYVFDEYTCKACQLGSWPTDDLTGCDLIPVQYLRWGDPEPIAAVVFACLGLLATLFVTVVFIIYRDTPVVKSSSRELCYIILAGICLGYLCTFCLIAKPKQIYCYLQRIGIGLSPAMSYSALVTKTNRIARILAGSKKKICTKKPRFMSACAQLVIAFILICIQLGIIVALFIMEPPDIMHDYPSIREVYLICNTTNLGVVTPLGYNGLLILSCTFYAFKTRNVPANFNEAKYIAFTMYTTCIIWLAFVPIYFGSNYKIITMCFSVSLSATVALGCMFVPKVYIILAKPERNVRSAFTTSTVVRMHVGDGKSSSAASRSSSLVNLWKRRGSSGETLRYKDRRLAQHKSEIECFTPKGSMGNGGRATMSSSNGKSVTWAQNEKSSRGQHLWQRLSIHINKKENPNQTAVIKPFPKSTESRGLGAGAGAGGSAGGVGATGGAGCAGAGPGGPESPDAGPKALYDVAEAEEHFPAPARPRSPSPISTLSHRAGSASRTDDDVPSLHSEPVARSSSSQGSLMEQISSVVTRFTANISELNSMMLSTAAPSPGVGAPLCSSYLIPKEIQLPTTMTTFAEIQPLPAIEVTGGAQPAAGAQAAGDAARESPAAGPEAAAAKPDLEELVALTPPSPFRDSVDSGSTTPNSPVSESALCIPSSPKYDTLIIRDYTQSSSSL

IC50 (mGluR5 receptors) | IC50 [1] | IC50 [2] | activity as metabotropic glutamate receptor (mGluR5) modulator [3] | melting point | selectivity ([3]; prior-art compound) | SMILES
36 nM | 17 nM | 147 nM | – | – | – | Cc1cc2c(o1)CCN(C(=O)c1cc3ncc(Br)cn3n1)C2C (stereo not shown) [Example 44, (6-Bromo-pyrazolo[1,5-a]pyrimidin-2-yl)-(2,4-dimethyl-6,7-dihydro-4H-furo[3,2-c]pyridin-5-yl)-methanone]
– | – | – | no particular activity | – | – | O=C(c1cc2ncc(Br)cn2n1)N1CCOCC1 [Example B310, (6-Bromopyrazolo[1,5-a]pyrimidin-2-yl)-morpholin-4-yl-methanone]
80.5 nM | 214 nM | 107 nM | – | – | – | CC1c2ccoc2CCN1C(=O)c1cc2ncc(Br)cn2n1 (stereo not shown) [Example 28, 6-Bromo-2-[(4-methyl-6,7-dihydrofuro[3,2-c]pyridin-5(4H)-yl)carbonyl]pyrazolo[1,5-a]pyrimidine]
22.8 nM | 12 nM | 104 nM | – | – | – | Cc1cc2c(s1)CCN(C(=O)c1cc3ncc(Br)cn3n1)C2C (stereo not shown) [Example 15, (6-Bromo-pyrazolo[1,5-a]pyrimidin-2-yl)-(2,4-dimethyl-6,7-dihydro-4H-thieno[3,2-c]pyridin-5-yl)-methanone]
– | – | – | no particular activity | – | – | O=C(c1cc2ncc(Br)cn2n1)N1CCCCC1 [Example B308, (6-Bromopyrazolo[1,5-a]pyrimidin-2-yl)-piperidin-1-yl-methanone]
21 nM | 150 nM | 82 nM | – | – | – | CCC1c2ccsc2CCN1C(=O)c1cc2ncc(Cl)cn2n1 (stereo not shown) [Example 10, (6-Chloro-pyrazolo[1,5-a]pyrimidin-2-yl)-(4-ethyl-6,7-dihydro-4H-thieno[3,2-c]pyridin-5-yl)-methanone]
24 nM | 55 nM | 44 nM | – | – | – | CC1c2ccsc2CCN1C(=O)c1cc2ncc(Cl)cn2n1 (stereo not shown) [Example 2, (6-Chloro-pyrazolo[1,5-a]pyrimidin-2-yl)-(4-methyl-6,7-dihydro-4H-thieno[3,2-c]pyridin-5-yl)-methanone]
23 nM | 80 nM | 80.7 nM | – | – | – | CC1c2ccsc2CCN1C(=O)c1cc2ncc(Br)cn2n1 (stereo not shown) [Example 1, 6-Bromo-2-[(4-methyl-6,7-dihydrothieno[3,2-c]pyridin-5(4H)-yl)carbonyl]pyrazolo[1,5-a]pyrimidine]
20 nM | 10 nM | 23.4 nM | – | 142 to 144 °C | – | C[C@@H]1c2ccsc2CCN1C(=O)c1cc2ncc(Br)cn2n1 [Example 42, (6-Bromo-pyrazolo[1,5-a]pyrimidin-2-yl)-(4-methyl-6,7-dihydro-4H-thieno[3,2-c]pyridin-5-yl)-methanone]
– | – | 4420 nM | – | 136 to 137 °C | – | C[C@H]1c2ccsc2CCN1C(=O)c1cc2ncc(Br)cn2n1 [Example 41, (6-Bromo-pyrazolo[1,5-a]pyrimidin-2-yl)-(4-methyl-6,7-dihydro-4H-thieno[3,2-c]pyridin-5-yl)-methanone]
– | – | – | only a limited activity | – | not selective | O=C(c1cc2ncc(Br)cn2n1)N1CCc2ccccc2C1 [M, (6-Bromo-pyrazolo[1,5-a]pyrimidin-2-yl)-(1,2,3,4-tetrahydro-isoquinolin-2-yl)-methanon]
21 nM | 117 nM | 63.6 nM | – | – | – | CCC1c2ccsc2CCN1C(=O)c1cc2ncc(Br)cn2n1 (stereo not shown) [Example 9, (6-Bromo-pyrazolo[1,5-a]pyrimidin-2-yl)-(4-ethyl-6,7-dihydro-4H-thieno[3,2-c]pyridin-5-yl)-methanone]
64 nM | 110 nM | 206 nM | – | – | – | CC1c2ccoc2CCN1C(=O)c1cc2ncc(Cl)cn2n1 (stereo not shown) [Example 29, 6-Chloro-2-[(4-methyl-6,7-dihydrofuro[3,2-c]pyridin-5(4H)-yl)carbonyl]pyrazolo[1,5-a]pyrimidine]
21 nM | 20 nM | 92.9 nM | – | – | – | Cc1cc2c(s1)CCN(C(=O)c1cc3ncc(Cl)cn3n1)C2C (stereo not shown) [Example 16, (6-Chloro-pyrazolo[1,5-a]pyrimidin-2-yl)-(2,4-dimethyl-6,7-dihydro-4H-thieno[3,2-c]pyridin-5-yl)-methanone]
